Results published in patent publication US11707448B2, “Combination therapies for the treatment of cancer” (Eisai R&D Management Co., Ltd., priority 2014, dated 2023).

Legend:
CT26 tumors [1] = test: CT26 subcutaneous tumor model, ER-886046 with radiation; type: in vivo, mice
Protocol: FIG. 1A to FIG. 1B. […] Panel shown in FIG. 1A) Average tumor sizes of the CT26 tumor-bearing mice that received 9 Gy radiation+ER-886046, 9 Gy radiation alone, or vehicle alone. Panel shown in FIG. 1B) Average animal body weight of the CT-26 tumor-bearing mice. Radiation treatment: 9 Gy single dose on day 9; ER-886046 dosing: 150 mg/kg, oral (po) administration daily from day 9 to day 32. Administration of radiation and ER-886046 to the tumor-bearing mice is indicated by the arrows and bars, respectively. N=10-12 per group. *, p<0.05, student t-test.
FIG. 2A to FIG. 2C. Tumor growth plots of the individual CT-26 tumors treated with radiation/ER-886046 or radiation alone. The animals are of the experiment described in FIG. 1A and FIG. 1B. Panel shown in FIG. 2A) Vehicle treatment group. Panel shown in FIG. 2C) Radiation plus ER-886046. N=10-12 per group. […] Radiation treatment: 9 Gy single dose on day 9; ER-886046 dosing: 150 mg/kg, oral (po) administration daily from day 9 to day 32. Each line represents an individual animal.
FIG. 3. Improved tumor growth suppression and animal survival by low dose radiation/ER-886046 compared with low dose radiation alone. Plots of animal survival status among indicated treatment groups. Radiation treatment: 3 Gy single dose on day 17; ER-886046 dosing: 150 mg/kg, po administration daily from days 17 to 45. […] N=10 per group. *, p<0.05; ***, p<0.001; Gehan-Breslow-Wilcoxon test.
Animal studies; In vitro cultured cancer cells were harvested and suspended in 100 μl of phosphate buffered saline at a cell concentration of 1.0×10^5 cells/ml and subcutaneously (sc) injected into the mice using a 26 g syringe on day 0. At the days post cell implantation as indicated in the figures, the mice were randomized based on the tumor size followed by treatments with radiation at 3 or 9 Gy dose per treatment, anti-PDL1 at 200 μg/mouse per intraperitoneal injection (ip), or anti-CTLA4 at 200 or 100 μg/mouse per ip injection with or without orally administration of ER-886046 at a dose of 150 mg/kg. The animals that were assigned to the treatment groups in individual study had close mean tumor weights in all groups. The tumor sizes were measured twice a week by a digital caliper (Mitutoyo Corp), and the volume was calculated using the formula (1×w^2)/2=mm^3, where 1 and w refer to the larger and smaller perpendicular dimensions collected at each measurement. Graphs of group tumor sizes (mean±SEM) and body weights (mean±SEM) versus time were plotted using software GraphPad Prism 6 (Lake Forest, Calif.). Student t-test and Gehan-Breslow-Wilcoxon test were used for statistical analysis.

CT26 cells = test: Rechallenge of cured (tumor-free) mice with CT26 cells; type: in vivo; conditions: mice cured by ER-886046 + radiation
Excerpt: FIG. 4A to FIG. 4C. Long lasting anti-tumor effect with a memory immune response by ER-886046/radiation treatment. Panel shown in FIG. 4A) Tumor growth in the cured mice by ER-886046 and radiation combination treatment or in the naïve Ba1B/c mice that received injection of CT26 cells. Panel shown in FIG. 4B) Tumor growth of secondarily challenged CT-26 tumors in the cured mice or in naïve mice. Panel shown in FIG. 4C) Growth of 4T1 tumors in cured mice or in naïve mice. N=9-10. Note the complete rejection of challenged CT-26 tumor and reduced growth of challenged 4T1 tumors in the combination cured mice. ***, p<0.001. 2 tailed student t-test. Note that no treatment was applied to any animals.
In case of tumor rechallenge of tumor-free mice after treatments, CT26 cells and 4T1 cells were individually sc injected into the different flanks of the same mouse, and the growth of each tumor was measured and graphed as described above. Naïve mice that received neither cancer cell injection nor drug treatment were included as controls. […] At the end of study on day 27, the mice in all treatment groups were intranasally administered luciferin and the lungs were resected and analysed for luciferase expression using IVIS instrument. Quantification of the luciferase activity in the lungs was achieved by software Living Image.

CT26 tumors [2] = test: CT26 tumor model, ER-886046 with anti-PDL1 or anti-PD1; type: in vivo, mice
Protocol: FIG. 9A to FIG. 9B. […] Anti-PDL1 dosing: 200 μg per iv injection on days 9, 12, 15 and 18 post cell implantation as indicated by the arrows; […] Anti-PD1 dosing: 200 μg per iv injection on days 9, 12, 15, 18 and 21 post cell implantation as indicated by the arrows; […] Animal studies; In vitro cultured cancer cells were harvested and suspended in 100 μl of phosphate buffered saline at a cell concentration of 1.0×10^5 cells/ml and subcutaneously (sc) injected into the mice using a 26 g syringe on day 0. […] The animals that were assigned to the treatment groups in individual study had close mean tumor weights in all groups. […] Graphs of group tumor sizes (mean±SEM) and body weights (mean±SEM) versus time were plotted using software GraphPad Prism 6 (Lake Forest, Calif.). Student t-test and Gehan-Breslow-Wilcoxon test were used for statistical analysis.

[3] = ER-886046 150 mg/kg po daily day 9-32 + radiation 9 Gy single dose day 9

In the case of C[C@H](NC(=O)c1c(C(F)F)nn(C)c1Oc1cccc(C(F)(F)F)c1)c1ccc(C(=O)O)cc1 [ER-886046], the “gross health and animal body weight compared to radiation alone” value (CT26 tumors [1]; ER-886046 150 mg/kg po daily added to 9 Gy radiation) is reported as “did not impact the gross health and animal body weight”, the “tumors with fast progression” value (CT26 tumors [1]; ER-886046 150 mg/kg po daily day 9-32 + radiation 9 Gy) is reported as 1 out of 12 and the “anti-tumor activity compared to radiation alone” value (CT26 tumors [1]; [3]) is reported as “statistically significantly improved”. For the same molecule, the “tumor growth (average tumor size)” value (CT26 tumors [1]; [3]) was “sustained tumor growth inhibition until the end of the study on day 49”, the “cure (complete tumor regression)” value (CT26 tumors [1]; ER-886046 150 mg/kg po daily day 9-32 + radiation 9 Gy, end of study) was 9 out of 12 and the animal survival (CT26 tumors [1]; ER-886046 150 mg/kg po daily days 17-45 + low dose radiation 3 Gy single dose day 17, vs vehicle or radiation alone) was “significantly increased the animal survival”. The “tumor recurrence in the 9 tumor-free mice” value (CT26 tumors [1]; cured by ER-886046 + radiation, followed for an additional 2 months) was “no tumor recurrence”, the “tumor growth after secondary CT26 challenge” value (CT26 cells; 1.5 months after the first challenge) was “did not produce detectable tumor” and the “tumor growth after CT26 challenge at another site” value (CT26 cells; monitored 1.5 months, no further treatment) was “did not grow tumors at all”. For the same molecule, the “anti-tumor activity compared to anti-PDL1 alone” value (CT26 tumors [2]; ER-886046 150 mg/kg po daily day 9-19 + anti-PDL1 200 μg) was “better anti-tumor activity” and the “anti-tumor activity compared to anti-PD1 alone” value (CT26 tumors [2]; ER-886046 150 mg/kg po daily day 9-23 + anti-PD1 200 μg) was “better anti-tumor activity”.
